{"source": "patent US10358683B2", "about": "“Compositions and methods for determining whether a subject would benefit from co-receptor inhibitor therapy” (priority 2007, dated 2019)", "key": {"[1]": {"test_system": "Clone 11 (R5 >> X4_2)", "assay_type": "cell-based, HIV-1", "conditions": "PBMCs; Clone 11 envelope in NL4-3 infectious clone, tropism subtype R5 >> X4", "description": "(§1) First, 35 gp160 envelope genes derived from different patient samples that were originally identified as dual-tropic were cloned into an expression vector as described in Example 1. Tropism of pseudotyped virus was determined by measuring luciferase activity (relative light units, RLU) following infection of U87/CD4+CCR5+ or U87/CD4+CXCR4+ cells as described above. Inhibition of infection by small molecule CCR5-(Merck) and CXCR4-(AMD3100; AnorMED) inhibitors was examined on U87/CD4+CCR5+CXCR4+ cells, U87/CD4+CXCR4+ cells, and U87/CD4+CCR5+ cells. A subset of the envelope genes were also inserted into an NL4-3 infectious clone and evaluated for their ability to infect PBMCs in the presence of the CCR5- or CXCR4-inhibitors."}, "[2]": {"test_system": "Clone 22 (R5~X4_4)", "assay_type": "cell-based, HIV-1", "conditions": "PBMCs; Clone 22 envelope in NL4-3 infectious clone, tropism subtype R5~X4", "description": "as §1"}, "[3]": {"test_system": "Clone 25 (R5~X4_2)", "assay_type": "cell-based, HIV-1", "conditions": "PBMCs; Clone 25 envelope in NL4-3 infectious clone, tropism subtype R5~X4", "description": "as §1"}, "[4]": {"test_system": "Clone 26 (R5~X4_1)", "assay_type": "cell-based, HIV-1", "conditions": "PBMCs; Clone 26 envelope in NL4-3 infectious clone, tropism subtype R5~X4", "description": "as §1"}, "[5]": {"test_system": "Clone 28 (R5~X4_3)", "assay_type": "cell-based, HIV-1", "conditions": "PBMCs; Clone 28 envelope in NL4-3 infectious clone, tropism subtype R5~X4", "description": "as §1"}, "[6]": {"test_system": "Clone 31 (X4 >> R5_3)", "assay_type": "cell-based, HIV-1", "conditions": "PBMCs; Clone 31 envelope in NL4-3 infectious clone, tropism subtype X4 >> R5", "description": "as §1"}, "[7]": {"test_system": "Clone 33 (X4 >> R5_2)", "assay_type": "cell-based, HIV-1", "conditions": "PBMCs; Clone 33 envelope in NL4-3 infectious clone, tropism subtype X4 >> R5", "description": "as §1"}, "[8]": {"test_system": "Clone 34 (X4 >> R5_1)", "assay_type": "cell-based, HIV-1", "conditions": "PBMCs; Clone 34 envelope in NL4-3 infectious clone, tropism subtype X4 >> R5", "description": "as §1"}, "[9]": {"test_system": "Clone 4 (R5 >> X4_1)", "assay_type": "cell-based, HIV-1", "conditions": "PBMCs; Clone 4 envelope in NL4-3 infectious clone, tropism subtype R5 >> X4", "description": "as §1"}, "[10]": {"test_system": "JRCSF (R5)", "assay_type": "cell-based, HIV-1", "conditions": "PBMCs, tropism subtype R5", "description": "as §1"}, "[11]": {"test_system": "NL43 (X4)", "assay_type": "cell-based, HIV-1", "conditions": "PBMCs; NL43, tropism subtype X4", "description": "as §1"}, "[12]": {"test_system": "primarily CCR5-tropic viruses", "assay_type": "cell-based, HIV-1", "conditions": "primarily CCR5-tropic viruses into CCR5- and CXCR4-expressing cells", "description": "(§2) Susceptibility assays for HIV-1 entry inhibitors were performed using packaging host cells consisting of the human embryonic kidney cell line 293 (Cell Culture Facility, UC San Francisco, SF, Calif.) and target host cells consisting of a human osteosarcoma (HOS) cell line expressing CD4 (HT4) plus CCR5, and CXCR4, or astrocytoma (U-87) cell lines expressing either CD4 and CCR5 or CD4 and CXCR4.\n(§3) Drug susceptibility testing was performed using pHIVenv and pHIVluc or pHIVlucΔU3. Pseudotyped HIV particles containing envelope proteins encoded by the subject derived segment were produced by transfecting a packaging host cell (HEK 293) with resistance test vector DNA. […] After infection (˜72 h) the target cells are lysed and luciferase activity is measured. […] The amount of luciferase activity detected in the infected cells is used as a direct measure of “infectivity” (FIGS. 1 and 2). […]\n(§4) Drug susceptibility is assessed by comparing the infectivity in the absence of drug to infectivity in the presence of drug. […]\n(§5) First, 35 gp160 envelope genes derived from different patient samples that were originally identified as dual-tropic were cloned into an expression vector as described in Example 1. Tropism of pseudotyped virus was determined by measuring luciferase activity (relative light units, RLU) following infection of U87/CD4+CCR5+ or U87/CD4+CXCR4+ cells as described above. […]"}, "[13]": {"test_system": "primarily CXCR4-tropic viruses", "test": "Entry of pseudotyped viruses into U87 cells in presence of co-receptor inhibitors (FIG. 5)", "assay_type": "cell-based, HIV-1", "description": "as §2, §3, §4, §5"}, "[14]": {"test_system": "Dual_X-tropic viruses", "conditions": "fully replication competent Dual_X-tropic viruses, PBMCs", "description": "as §1"}, "[15]": {"test_system": "dual-tropic viruses", "test": "Infection of PBMCs by fully replication competent viruses (FIG. 7, summary)", "assay_type": "cell-based, HIV-1", "description": "as §1"}, "[16]": {"test_system": "dual-tropic HIV-1 variants", "conditions": "for suppression of CXCR4-tropic virus: patients, 10 days of therapy", "description": "First, samples from 26 subjects administered AMD3100 for 10 days were obtained prior to therapy and on day 11 following the 10 days of therapy. Co-receptor tropism of the viral populations from both sets of samples were then determined according to Example 1. […] 37(2):1253-62."}, "[17]": {"conditions": "subjects with mixed populations, following treatment"}}, "note": "Like-named read-outs stand apart in the source and are kept apart here.", "data": [{"smiles": "c1cc(CN2CCCNCCNCCCNCC2)ccc1CN1CCCNCCNCCCNCC1", "note": "[AMD, AMD3100]", "values": [{"measurement": "% inhibition", "setting": "[1]", "result": "−3", "unit": "%"}, {"measurement": "% inhibition", "setting": "[2]", "result": "−12", "unit": "%"}, {"measurement": "% inhibition", "setting": "[3]", "result": 27, "unit": "%"}, {"measurement": "% inhibition", "setting": "[4]", "result": 41, "unit": "%"}, {"measurement": "% inhibition", "setting": "[5]", "result": 19, "unit": "%"}, {"measurement": "% inhibition", "setting": "[6]", "result": 98, "unit": "%"}, {"measurement": "% inhibition", "setting": "[7]", "result": 99, "unit": "%"}, {"measurement": "% inhibition", "setting": "[8]", "result": 99, "unit": "%"}, {"measurement": "% inhibition", "setting": "[9]", "result": "−1", "unit": "%"}, {"measurement": "% inhibition", "setting": "[10]", "result": 11, "unit": "%"}, {"measurement": "% inhibition", "setting": "[11]", "result": 99, "unit": "%"}, {"measurement": "inhibition of entry", "setting": "[12]", "result": "not inhibited"}, {"measurement": "inhibition of entry", "setting": "[13]; primarily CXCR4-tropic viruses into CCR5- and CXCR4-expressing cells", "result": "inhibited"}, {"measurement": "inhibition of entry", "setting": "[13]; primarily CXCR4-tropic viruses into CXCR4-expressing cells", "result": "inhibited"}, {"measurement": "inhibition of entry", "setting": "[14]", "result": "substantially inhibited"}, {"measurement": "inhibition of entry", "setting": "[15]", "result": "partially inhibited"}, {"measurement": "suppression of CXCR4-tropic virus", "setting": "[16]; populations comprising 100% dual viruses (homogeneous) at baseline", "result": "not suppressed"}, {"measurement": "suppression of CXCR4-tropic virus", "setting": "[16]; populations containing mixtures of CCR5-tropic and CXCR4-tropic or dual-tropic viruses at baseline", "result": "experienced suppression"}, {"measurement": "entry into cells using the CXCR4 co-receptor", "setting": "[16]; [17]", "result": "efficiently blocked"}, {"measurement": "entry using the CCR5 co-receptor", "setting": "[16]; [17]", "result": "unaffected"}]}]}
